The values that follow come from patent US20260258050A1, “IMMUNOMODULATOR” (HITGEN INC., priority 2023, published 2026).

The target of assay [1] is T1, Human IL-17A (Homo sapiens, UniProt Q16552).
T1 sequence (Q16552 20-155 limits assumed): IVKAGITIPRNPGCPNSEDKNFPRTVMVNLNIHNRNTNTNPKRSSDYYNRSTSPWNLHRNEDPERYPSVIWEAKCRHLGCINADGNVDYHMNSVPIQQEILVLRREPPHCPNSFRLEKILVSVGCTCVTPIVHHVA
Put plainly: Inhibition of human IL-17A protein-induced GROα/CXCL1 production in HT-29 cells. It is filed as cell-based. Also on record: purchased R&D 317-ILB; host or cells: added exogenously to HT-29 cells. The following applies: 30 ng/mL human IL-17A protein, 48 h, GROα in supernatant by ELISA kit, read-out: Inhibitory IC50 of compounds on HT-29 cell GROα/CXCL1. The method, boiled down: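 Compound dilutions were preincubated 1 h at 37 °C with 30 ng/mL human IL-17A, then added to HT-29 cells (5×10^4/well) for 48 h at 37 °C. GROα in supernatant quantified by ELISA; IC50 for inhibition of its production. Positive control: IL-17A antibody at […].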

For assay [2], the target named is T1, Human IL-17A. Kind of assay: IL-17A enzyme-linked immunosorbent assay (competitive ELISA, IL-17A/IL-17Ra receptor-ligand binding). Also on record: purchased Sino Biological Inc. 12047-H07B. To be noted: human IL-17A coated plate, human IL-17Ra, read-out: IC50, inhibitory activity of compounds on human IL-17A. The method in brief: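 Competitive ELISA with plates coated with human IL-17A at 0.2 μg/ml, blocked with 5% skim milk. Compound pre-incubated with IL-17A 10 min at 25 °C, then 16 nM IL-17Ra stock added for 30 min. Bound receptor detected by anti-Fc HRP/TMB, A450. IC50 from variable-slope fit of blank-corrected residual activity.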
(In an ELISA, binding on a coated surface is turned into a signal by an enzyme label.)

As for `CCN1Cc2cc(NC(=O)[C@@H](NC(=O)c3ccnn3C(C)C)C(C3CC3)C3CC3)c(F)cc2-c2c(n[nH]c2C)CC1=O` [compound 142], the values for the IC50 at Human IL-17A [1] and on Human IL-17A [2] were at most 0.1 µM and at most 0.05 µM, respectively.

For the compound `Cc1[nH]nc2c1-c1cc(F)c(NC(=O)[C@@H](NC(=O)c3ccnn3C(C)C)C(C3CC3)C3CC3)cc1CN(CC(C)(F)F)C(=O)C2` [compound 148], the IC50 at Human IL-17A [1] is at most 0.1 µM; on Human IL-17A [2] it was at most 0.05 µM.

Turning to `Cc1[nH]nc2c1-c1cc(F)c(NC(=O)[C@@H](NC(=O)c3ccnn3C(C)C)C(C3CC3)C3CC3)cc1CN(CC(F)(F)F)CC2` [compound 164], the results for the IC50 at Human IL-17A [1] and at Human IL-17A [2] were at most 0.1 µM and at most 0.05 µM, respectively.

`Cc1[nH]nc2c1-c1ccc(NC(=O)[C@@H](NC(=O)c3ccnn3C3CC3)C(C3CC3)C3CC3)cc1COCC2` [compound 6]: the IC50 is 0.1 to 0.5 µM at Human IL-17A [1] and at most 0.05 µM on Human IL-17A [2].

On to `CCn1nccc1C(=O)N[C@H](C(=O)Nc1ccc2c(c1)COCCc1n[nH]c(C)c1-2)C(C1CC1)C1CC1` [compound 3], for which the IC50 at Human IL-17A [1] is at most 0.1 µM; at Human IL-17A [2], at most 0.05 µM.

In the case of `Cc1[nH]nc2c1-c1cc(F)c(NC(=O)[C@@H](NC(=O)c3ccnn3C(C)C)C(C3CC3)C3CC3)cc1CN(C1CC1)C(=O)C2` [compound 136], the IC50 at Human IL-17A [1] is at most 0.1 µM; on Human IL-17A [2], at most 0.05 µM.

For the compound `CCN1CCc2n[nH]c(C)c2-c2cc(F)c(NC(=O)[C@@H](NC(=O)c3ccnn3C(C)C)C(C3CC3)C3CC3)cc2C1` [compound 156], the IC50 on Human IL-17A [1] is 0.1 to 0.5 µM; on Human IL-17A [2], at most 0.05 µM.

As for `CCn1nccc1C(=O)N[C@H](C(=O)Nc1cc2c(cc1F)-c1c(n[nH]c1C)CC(=O)N(C(C)C)C2)C(C1CC1)C1CC1` [compound 151], the results for the IC50 at Human IL-17A [1] and at Human IL-17A [2] were at most 0.1 µM and at most 0.05 µM, respectively.

In the case of `CCn1nccc1C(=O)N[C@H](C(=O)Nc1cc2c(cc1F)-c1c(n[nH]c1C)CC(=O)N(CC(C)(F)F)C2)C(C1CC1)C1CC1` [compound 149], the IC50 at Human IL-17A [1] is at most 0.1 µM; at Human IL-17A [2], at most 0.05 µM.

Take `Cc1[nH]nc2c1-c1cc(F)c(NC(=O)[C@@H](NC(=O)c3ccnn3C(C)C)C(C3CC3)C3CC3)cc1CN(CC(F)F)CC2` [compound 158]: the IC50 at Human IL-17A [1] was at most 0.1 µM; on Human IL-17A [2] it was at most 0.05 µM.

Take `Cc1[nH]nc2c1-c1cnc(NC(=O)[C@@H](NC(=O)c3ccnn3C[C@@H]3C[C@H]3F)C(C3CC3)C3CC3)cc1COCC2` [compound 125]: the IC50 on Human IL-17A [1] is at most 0.1 µM; at Human IL-17A [2], at most 0.05 µM.

Turning to `CCN1Cc2cc(NC(=O)[C@@H](NC(=O)c3ccnn3CC)C(C3CC3)C3CC3)c(F)cc2-c2c(n[nH]c2C)CC1=O` [compound 143], the IC50 on Human IL-17A [1] is at most 0.1 µM; at Human IL-17A [2], at most 0.05 µM.

Take `Cc1[nH]nc2c1-c1cc(F)c(NC(=O)[C@@H](NC(=O)c3ccnn3C(C)C)C(C3CC3)C3CC3)cc1CN(CC(C)(F)F)CC2` [compound 160]: the values for the IC50 on Human IL-17A [1] and at Human IL-17A [2] were at most 0.1 µM and at most 0.05 µM, respectively.

With `Cc1[nH]nc2c1-c1cc(F)c(NC(=O)[C@@H](NC(=O)c3ccnn3C(C)C)C(C3CC3)C3CC3)cc1CN(C(C)C)C(=O)C2` [compound 150], the IC50 at Human IL-17A [1] is at most 0.1 µM; on Human IL-17A [2], at most 0.05 µM.

Take `CCn1nccc1C(=O)N[C@H](C(=O)Nc1cc2c(cc1F)-c1c(n[nH]c1C)CCN(CC(F)F)C2)C(C1CC1)C1CC1` [compound 159]: the figures for the IC50 on Human IL-17A [1] and on Human IL-17A [2] were at most 0.1 µM and at most 0.05 µM, respectively.

On to `Cc1[nH]nc2c1-c1cc(F)c(NC(=O)[C@@H](NC(=O)c3ccnn3C(C)C)C(C3CC3)C3CC3)cc1CN(CC1CC1)C(=O)C2` [compound 153], for which the results for the IC50 on Human IL-17A [1] and on Human IL-17A [2] were at most 0.1 µM and at most 0.05 µM, respectively.

For `CCn1nccc1C(=O)N[C@H](C(=O)Nc1cc2c(cc1F)-c1c(n[nH]c1C)CC(=O)N(CC(F)F)C2)C(C1CC1)C1CC1` [compound 145], the figures for the IC50 at Human IL-17A [1] and on Human IL-17A [2] were at most 0.1 µM and at most 0.05 µM, respectively.

With `Cc1[nH]nc2c1-c1cc(F)c(NC(=O)[C@@H](NC(=O)c3ccnn3C(C)C)C(C3CC3)C3CC3)cc1CN(CC(F)F)C(=O)C2` [compound 144], the values for the IC50 on Human IL-17A [1] and at Human IL-17A [2] were at most 0.1 µM and at most 0.05 µM, respectively.

On to `CCn1nccc1C(=O)N[C@H](C(=O)Nc1cc2c(cc1F)-c1c(n[nH]c1C)CC(=O)N(C)C2)C(C1CC1)C1CC1` [compound 133], for which the IC50 on Human IL-17A [1] is 0.1 to 0.5 µM; at Human IL-17A [2], at most 0.05 µM.

As to `Cc1[nH]nc2c1-c1cc(F)c(NC(=O)[C@@H](NC(=O)c3ccnn3C(C)C)C(C3CC3)C3CC3)cc1CN(C1CC1)CC2` [compound 165], the IC50 is at most 0.1 µM at Human IL-17A [1] and at most 0.05 µM on Human IL-17A [2].

Take `Cc1[nH]nc2c1-c1cc(F)c(NC(=O)[C@@H](NC(=O)c3ccnn3C(C)C)C(C3CC3)C3CC3)cc1CN(C)C(=O)C2` [compound 132]: the IC50 on Human IL-17A [1] is at most 0.1 µM; at Human IL-17A [2], at most 0.05 µM.

As for `CCn1nccc1C(=O)N[C@H](C(=O)Nc1cc2c(cc1F)-c1c(n[nH]c1C)CCN(CC(C)(F)F)C2)C(C1CC1)C1CC1` [compound 161], the IC50 at Human IL-17A [1] is at most 0.1 µM; at Human IL-17A [2], at most 0.05 µM.

Consider `Cc1[nH]nc2c1-c1cc(F)c(NC(=O)[C@@H](NC(=O)c3ccnn3C(C)C)C(C3CC3)C3CC3)cc1CN(CC(F)(F)F)C(=O)C2` [compound 152], for which the IC50 at Human IL-17A [1] is at most 0.1 µM; at Human IL-17A [2], at most 0.05 µM.
